Assay: xn = mol fraction of the nth substance listed
Settings: Liquid, Pycnometric method

COC(=O)OC [dimethyl carbonate] + O=C=O
Settings	mass density [kg/m3]
323.15 K, 9620 kPa, x1 = 0.0242	495
323.15 K, 9710 kPa, x1 = 0.0242	509
323.15 K, 9740 kPa, x1 = 0.118	852
323.15 K, 9750 kPa, x1 = 0.0481	666
323.15 K, 9760 kPa, x1 = 0.086	792
323.15 K, 9760 kPa, x1 = 0.1484	883
323.15 K, 9800 kPa, x1 = 0.0242	523
323.15 K, 9900 kPa, x1 = 0.0242	536
323.15 K, 9930 kPa, x1 = 0.0242	541
323.15 K, 10010 kPa, x1 = 0.0481	683
323.15 K, 10220 kPa, x1 = 0.118	859
323.15 K, 10280 kPa, x1 = 0.086	803
323.15 K, 10280 kPa, x1 = 0.1484	888
323.15 K, 10350 kPa, x1 = 0.0481	700
323.15 K, 10740 kPa, x1 = 0.086	813
323.15 K, 10740 kPa, x1 = 0.118	866
323.15 K, 10740 kPa, x1 = 0.1484	893
323.15 K, 10780 kPa, x1 = 0.0481	719
323.15 K, 11230 kPa, x1 = 0.086	822
323.15 K, 11230 kPa, x1 = 0.118	872
323.15 K, 11230 kPa, x1 = 0.1484	897
323.15 K, 11360 kPa, x1 = 0.0481	739
323.15 K, 11670 kPa, x1 = 0.086	829
323.15 K, 11750 kPa, x1 = 0.118	878
323.15 K, 11760 kPa, x1 = 0.1484	901
323.15 K, 11870 kPa, x1 = 0.0481	754
323.15 K, 12240 kPa, x1 = 0.1484	905
323.15 K, 12270 kPa, x1 = 0.118	883
323.15 K, 12310 kPa, x1 = 0.086	839
323.15 K, 12390 kPa, x1 = 0.0481	768
323.15 K, 12740 kPa, x1 = 0.086	844
323.15 K, 12750 kPa, x1 = 0.118	888
323.15 K, 12770 kPa, x1 = 0.1484	910
323.15 K, 12920 kPa, x1 = 0.0481	780
323.15 K, 13190 kPa, x1 = 0.086	851
323.15 K, 13260 kPa, x1 = 0.1484	913
323.15 K, 13310 kPa, x1 = 0.118	894
323.15 K, 13550 kPa, x1 = 0.0481	792
323.15 K, 13740 kPa, x1 = 0.086	857
323.15 K, 13760 kPa, x1 = 0.1484	918
323.15 K, 13830 kPa, x1 = 0.118	898
323.15 K, 14230 kPa, x1 = 0.086	863
323.15 K, 14270 kPa, x1 = 0.118	902
323.15 K, 14330 kPa, x1 = 0.1484	922
323.15 K, 14730 kPa, x1 = 0.086	868
323.15 K, 14750 kPa, x1 = 0.118	907
323.15 K, 14820 kPa, x1 = 0.1484	925
323.15 K, 15220 kPa, x1 = 0.086	873
323.15 K, 15250 kPa, x1 = 0.118	911
323.15 K, 15510 kPa, x1 = 0.1484	930
323.15 K, 15660 kPa, x1 = 0.086	878
323.15 K, 15740 kPa, x1 = 0.118	914
323.15 K, 16130 kPa, x1 = 0.086	883
323.15 K, 16420 kPa, x1 = 0.1484	936
323.15 K, 16430 kPa, x1 = 0.118	920
327.95 K, 8540 kPa, x1 = 0.1484	839
327.95 K, 8840 kPa, x1 = 0.1484	844
327.95 K, 8920 kPa, x1 = 0.118	801
327.95 K, 9150 kPa, x1 = 0.0242	333
327.95 K, 9160 kPa, x1 = 0.118	806
327.95 K, 9180 kPa, x1 = 0.0242	337
327.95 K, 9250 kPa, x1 = 0.0242	344
327.95 K, 9290 kPa, x1 = 0.1484	850
327.95 K, 9320 kPa, x1 = 0.0242	352
327.95 K, 9320 kPa, x1 = 0.086	724
327.95 K, 9400 kPa, x1 = 0.0242	359
327.95 K, 9470 kPa, x1 = 0.0242	369
327.95 K, 9470 kPa, x1 = 0.118	812
327.95 K, 9540 kPa, x1 = 0.0242	378
327.95 K, 9620 kPa, x1 = 0.0242	387
327.95 K, 9690 kPa, x1 = 0.0242	397
327.95 K, 9720 kPa, x1 = 0.086	740
327.95 K, 9750 kPa, x1 = 0.1484	856
327.95 K, 9760 kPa, x1 = 0.118	818
327.95 K, 9770 kPa, x1 = 0.0242	407
327.95 K, 9860 kPa, x1 = 0.0242	418
327.95 K, 9950 kPa, x1 = 0.0242	430
327.95 K, 9990 kPa, x1 = 0.086	750
327.95 K, 10040 kPa, x1 = 0.0242	442
327.95 K, 10120 kPa, x1 = 0.0242	453
327.95 K, 10240 kPa, x1 = 0.118	827
327.95 K, 10240 kPa, x1 = 0.1484	862
327.95 K, 10400 kPa, x1 = 0.086	762
327.95 K, 10740 kPa, x1 = 0.086	772
327.95 K, 10740 kPa, x1 = 0.118	835
327.95 K, 10770 kPa, x1 = 0.1484	868
327.95 K, 11180 kPa, x1 = 0.086	782
327.95 K, 11220 kPa, x1 = 0.118	842
327.95 K, 11260 kPa, x1 = 0.1484	873
327.95 K, 11650 kPa, x1 = 0.086	792
327.95 K, 11720 kPa, x1 = 0.118	849
327.95 K, 11760 kPa, x1 = 0.1484	878
327.95 K, 12200 kPa, x1 = 0.118	855
327.95 K, 12210 kPa, x1 = 0.086	802
327.95 K, 12260 kPa, x1 = 0.1484	883
327.95 K, 12680 kPa, x1 = 0.118	861
327.95 K, 12750 kPa, x1 = 0.086	812
327.95 K, 12800 kPa, x1 = 0.1484	888
327.95 K, 13200 kPa, x1 = 0.086	819
327.95 K, 13310 kPa, x1 = 0.1484	893
327.95 K, 13320 kPa, x1 = 0.118	868
327.95 K, 13680 kPa, x1 = 0.086	826
327.95 K, 13780 kPa, x1 = 0.118	873
327.95 K, 13800 kPa, x1 = 0.1484	897
327.95 K, 14170 kPa, x1 = 0.086	833
327.95 K, 14240 kPa, x1 = 0.1484	901
327.95 K, 14310 kPa, x1 = 0.118	879
327.95 K, 14710 kPa, x1 = 0.086	840
327.95 K, 14780 kPa, x1 = 0.1484	905
327.95 K, 14800 kPa, x1 = 0.118	884
327.95 K, 15160 kPa, x1 = 0.086	846
327.95 K, 15260 kPa, x1 = 0.118	888
327.95 K, 15300 kPa, x1 = 0.1484	909
327.95 K, 15660 kPa, x1 = 0.086	852
327.95 K, 15740 kPa, x1 = 0.118	892
327.95 K, 15860 kPa, x1 = 0.1484	913
327.95 K, 16180 kPa, x1 = 0.086	858
327.95 K, 16330 kPa, x1 = 0.118	897
327.95 K, 16560 kPa, x1 = 0.1484	918
328.15 K, 9640 kPa, x1 = 0.0481	532
328.15 K, 9710 kPa, x1 = 0.0481	543
328.15 K, 9800 kPa, x1 = 0.0481	556
328.15 K, 9910 kPa, x1 = 0.0481	570
328.15 K, 10030 kPa, x1 = 0.0481	585
328.15 K, 10180 kPa, x1 = 0.0481	600
328.15 K, 10340 kPa, x1 = 0.0481	615
328.15 K, 10540 kPa, x1 = 0.0481	632
328.15 K, 10720 kPa, x1 = 0.0481	645
328.15 K, 10940 kPa, x1 = 0.0481	659
328.15 K, 11190 kPa, x1 = 0.0481	673
328.15 K, 11350 kPa, x1 = 0.0481	681
332.85 K, 9040 kPa, x1 = 0.0242	282
332.85 K, 9110 kPa, x1 = 0.0242	287
332.85 K, 9180 kPa, x1 = 0.1484	814
332.85 K, 9200 kPa, x1 = 0.0242	292
332.85 K, 9270 kPa, x1 = 0.0242	298
332.85 K, 9350 kPa, x1 = 0.0242	305
332.85 K, 9430 kPa, x1 = 0.0242	311
332.85 K, 9520 kPa, x1 = 0.0242	318
332.85 K, 9620 kPa, x1 = 0.118	768
332.85 K, 9620 kPa, x1 = 0.1484	821
332.85 K, 9640 kPa, x1 = 0.0242	329
332.85 K, 9720 kPa, x1 = 0.0242	336
332.85 K, 9810 kPa, x1 = 0.0242	344

Reference: the NIST ThermoML archive (doi:10.1021/je900691n)
